# Tests used:
# [1] = molecular target: T1, human TRPM8 (Homo sapiens, UniProt Q7Z2W7); assay: Evaluation of human TRPM8 activity (cool-feeling intensity), calcium fluorescence in stable expression cells; assay type: cell-based; conditions: Fluo4-AM, 32° C., read-out: EC50 value in TRPM8 activation action
# T1 construct: The full-length human TRPM8 gene was amplified from plasmid RC220615 (manufactured by Origene) using a PCR method; host or cells: Flp-In T-REx 293 cells ('Flp-In293293 cells' [sic]), pcDNA5/FRT/TO, doxycycline-induced
# Protocol: It is common that a compound having a cooling effect such as menthol generally induces a cool-feeling by activating melastatin transient receptor potential channel 8 (TRPM8) as a cold stimulation receptor (for example, see J. Neurobiol. (2004), Vol. 61, PP. 3-12). Therefore, in order to evaluate the cool-feeling intensity, EC50 values of the exemplary compounds obtained in the Examples in TRPM8 activation actions were evaluated according to the following procedures.
# The full-length human TRPM8 gene was amplified from plasmid RC220615 (manufactured by Origene) using a PCR method. The obtained PCR product was subcloned into pcDNA5/FRT/TO (manufactured by Thermo Fisher Scientific K.K.), and then it was introduced into Flp-In293293 cells (manufactured by Thermo Fisher Scientific K.K.) by using a Flp-InT-REx system (manufactured by Thermo Fisher Scientific K.K.), so that a human TRPM8 stable expression cell line was prepared.
# The cultured human TRPM8 stable expression cells were seeded at a ratio of 50,000 cells/well to a poly-D-lysine-coated 96-well microplate (manufactured by Corning Incorporated), 1 μg/mL of doxycycline (manufactured by Takara Bio Inc.) was added thereto, and then the seeded cells were cultured at 37° C. for one night, so that the expression of the human TRPM8 was induced.
# The culture solution was replaced with a buffer solution, and then, a fluorescent calcium indicator (Fluo4-AM: manufactured by Dojindo) was added thereto, the cells were incubated at 37° C. for 30 minutes, and they were transferred to a fluorescent microplate reader (FlexStation3: Molecular Devices, LLC.). Exemplary compounds were added in a final concentration range of 0.1 μM to 1000 μM, and the changes in fluorescence having a wavelength of 525 nm when excited at a wavelength of 485 nm were measured at a device temperature of 32° C., so as to calculate EC50 values.
# [2] = Sensory evaluation of 30 ppm aqueous solution by three flavorists; assay type: in vivo, human; conditions: for intensity of cool-feeling: mouth rinsed and spat out; for intensity of cool-feeling compared with comparative compounds: 30 ppm aqueous solutions
# Protocol: The sensory evaluation was performed by comparing the exemplary compound (1-1) with the so far known comparative compounds 1 to 4. Comparative compounds 1, 3, and 4 were synthesized according to the method described in WO 2016/153011 A1, and comparative compound 2 was synthesized according to the method described in WO 2005/020897 A1. The exemplary compound (1-1) and comparative compounds 1 to 4 were separately prepared into a 30 ppm aqueous solution, and the aqueous solution was used to perform the evaluation.
# The evaluation was performed by three flavorists. The aqueous solution was taken into the mouth and spat out after the mouth was rinsed, and intensity, persistence, and quality of a cool-feeling in the oral cavity were evaluated.
# A 30 ppm aqueous solution of the exemplary compound (1-2) was prepared and used to perform the evaluation.
# A 30 ppm aqueous solution of the exemplary compound (1-3) was prepared and used to perform the evaluation.
# A 30 ppm aqueous solution of the exemplary compound (1-5) was prepared and used to perform the evaluation.
# T1 sequence (Q7Z2W7 whole entry): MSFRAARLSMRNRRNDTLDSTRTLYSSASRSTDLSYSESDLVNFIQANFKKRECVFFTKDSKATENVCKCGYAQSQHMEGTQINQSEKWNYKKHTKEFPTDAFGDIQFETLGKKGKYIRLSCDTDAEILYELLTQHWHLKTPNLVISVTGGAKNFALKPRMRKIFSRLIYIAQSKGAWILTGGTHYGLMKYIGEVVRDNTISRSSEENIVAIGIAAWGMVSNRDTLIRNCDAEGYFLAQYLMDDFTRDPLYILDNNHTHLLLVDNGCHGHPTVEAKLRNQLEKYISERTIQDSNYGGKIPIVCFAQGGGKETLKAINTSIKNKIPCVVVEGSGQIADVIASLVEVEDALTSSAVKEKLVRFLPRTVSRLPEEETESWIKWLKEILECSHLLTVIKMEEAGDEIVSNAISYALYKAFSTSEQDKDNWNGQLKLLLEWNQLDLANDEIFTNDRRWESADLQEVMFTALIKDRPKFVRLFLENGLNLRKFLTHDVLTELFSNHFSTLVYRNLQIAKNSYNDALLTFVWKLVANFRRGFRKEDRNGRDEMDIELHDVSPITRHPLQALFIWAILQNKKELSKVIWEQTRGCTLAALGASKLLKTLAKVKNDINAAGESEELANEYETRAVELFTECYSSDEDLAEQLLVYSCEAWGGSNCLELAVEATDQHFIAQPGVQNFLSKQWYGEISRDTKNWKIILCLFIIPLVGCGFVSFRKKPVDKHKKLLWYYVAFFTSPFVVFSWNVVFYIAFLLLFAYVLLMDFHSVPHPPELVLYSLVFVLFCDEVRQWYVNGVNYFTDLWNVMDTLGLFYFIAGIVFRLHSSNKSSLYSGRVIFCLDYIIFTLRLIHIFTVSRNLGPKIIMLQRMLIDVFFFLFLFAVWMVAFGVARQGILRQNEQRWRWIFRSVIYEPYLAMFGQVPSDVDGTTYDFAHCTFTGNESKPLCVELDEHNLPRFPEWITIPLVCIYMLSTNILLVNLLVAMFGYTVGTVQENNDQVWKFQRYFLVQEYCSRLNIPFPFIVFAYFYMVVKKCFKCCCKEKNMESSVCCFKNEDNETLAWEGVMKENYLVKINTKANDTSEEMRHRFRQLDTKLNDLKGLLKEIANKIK
SMILES,EC50 [1],melting point,further results
"CC(C)[C@@H]1CC[C@@H](C)CC1C(=O)NCC(O)c1ccccc1 (stereo partly shown) [Comparative compound 2, reference compound]",,,persistence of cool-feeling ([2]; 30 ppm aqueous solution): persistent; intensity of cool-feeling ([2]; 30 ppm aqueous solution): very strong; intensity of cool-feeling compared with comparative compounds [2]: same cooling intensity and persistence as those of the exemplary compound (1-1)
"CC(C)C1CCC(C)(C)CC1C(=O)NCC(O)c1ccccc1 (stereo not shown) [Exemplary Compound 1-1, N-(2-hydroxy-2-phenylethyl)-2-isopropyl-5,5-dimethyl cyclohexane carboxamide]",,,persistence: cool-feeling lasted for ([2]; 30 ppm aqueous solution): ≥ 60 min; start of the cool-feeling ([2]; 30 ppm aqueous solution): clearly faster than the comparative compounds 1 to 4; intensity of cool-feeling ([2]; 30 ppm aqueous solution): very strong; intensity of cool-feeling compared with comparative compounds [2]: clearly stronger than those of the comparative compounds 3 and 4
"CC(C)C1CCC(C)(C)CC1C(=O)NC[C@@H](O)c1ccccc1 (stereo partly drawn) [Exemplary Compound 1-2, N—((S)-2-hydroxy-2-phenylethyl)-2-isopropyl-5,5-dimethyl cyclohexane carboxamide]",,,persistence: cool-feeling lasted for ([2]; 30 ppm aqueous solution): ≥ 90 min; start of the cool-feeling ([2]; 30 ppm aqueous solution): strong cool-feeling was felt when the exemplary compound (1-2) was put in the mouth; intensity of cool-feeling ([2]; 30 ppm aqueous solution): very strong
"CC(C)C1CCC(C)(C)CC1C(=O)NC[C@H](O)c1ccccc1 (stereo partly drawn) [Exemplary Compound 1-3, N—((R)-2-hydroxy-2-phenylethyl)-2-isopropyl-5,5-dimethyl cyclohexane carboxamide]",,,persistence: cool-feeling lasted for ([2]; 30 ppm aqueous solution): ≥ 60 min; start of the cool-feeling ([2]; 30 ppm aqueous solution): strong cool-feeling was felt when the exemplary compound (1-3) was put in the mouth; intensity of cool-feeling ([2]; 30 ppm aqueous solution): very strong
"CC(C)C1CCC(C)(C)CC1C(=O)NCC(=O)c1ccccc1 (stereo not shown) [Exemplary Compound 1-5, 2-isopropyl-5,5-dimethyl-N-(2-oxo-2-phenylethyl) cyclohexane carboxamide]",,85 to 88 °C,persistence: cool-feeling lasted for ([2]; 30 ppm aqueous solution): ≥ 60 min; start of the cool-feeling ([2]; 30 ppm aqueous solution): gradually felt strongly; intensity of cool-feeling ([2]; 30 ppm aqueous solution): very strongly at the peak time
"CC(CNC(=O)C1CC(C)(C)CCC1C(C)C)c1ccccc1 (stereo not shown) [Exemplary Compound 1-6, 2-isopropyl-5,5-dimethyl-N-(2-phenylpropyl) cyclohexane carboxamide]",,80 to 85 °C,
"CC(C)C1CCC(C)(C)CC1C(=O)NC[C@@H](C)c1ccccc1 (stereo partly drawn) [Exemplary Compound 1-7, 2-isopropyl-5,5-dimethyl-N—((S)-2-phenylpropyl) cyclohexane carboxamide]",,125 to 133 °C,
"CC(C)C1CCC(C)(C)CC1C(=O)NC[C@H](C)c1ccccc1 (stereo partly drawn) [Exemplary Compound 1-8, 2-isopropyl-5,5-dimethyl-N—((R)-2-phenylpropyl) cyclohexane carboxamide]",,127 to 134 °C,
"CC(C)C1CCC(C)(C)CC1C(=O)NCCc1ccc(O)cc1 (stereo not shown) [Exemplary Compound 1-9, N-(4-hydroxyphenylethyl)-2-isopropyl-5,5-dimethyl cyclohexane carboxamide]",,183 to 190 °C,
"COc1ccc(CCNC(=O)C2CC(C)(C)CCC2C(C)C)cc1 (stereo not shown) [Exemplary Compound 1-10, 2-isopropyl-N-(4-methoxyphenylethyl)-5,5-dimethyl cyclohexane carboxamide]",,86 to 88 °C,
"COc1ccc(CCNC(=O)C2CC(C)(C)CCC2C(C)C)cc1OC (stereo not shown) [Exemplary Compound 1-12, N-(3,4-dimethoxyphenylethyl)-2-isopropyl-5,5-dimethyl cyclohexane carboxamide]",,85 to 89 °C,
"CC(C)C1CCC(C)(C)CC1C(=O)NCCc1ccccc1 (stereo not shown) [Exemplary Compound 1-13, 2-isopropyl-5,5-dimethyl-N-phenylethyl cyclohexane carboxamide]",,90 to 93 °C,

# More lines, main results first:
EC50 [1],melting point,SMILES,further results
41 nM,,CC(C)C1CCC(C)(C)CC1C(=O)NCC(O)c1ccccc1 (stereo not shown) [1-1],
24.1 nM,,CC(C)C1CCC(C)(C)CC1C(=O)NC[C@@H](O)c1ccccc1 (stereo partly shown) [1-2],
73.6 nM,,CC(C)C1CCC(C)(C)CC1C(=O)NC[C@H](O)c1ccccc1 (stereo partly shown) [1-3],
541 nM,,CC(=O)OC(CNC(=O)C1CC(C)(C)CCC1C(C)C)c1ccccc1 (stereo not shown) [1-4],
149 nM,,CC(C)C1CCC(C)(C)CC1C(=O)NCC(=O)c1ccccc1 (stereo not shown) [1-5],
388 nM,,CC(CNC(=O)C1CC(C)(C)CCC1C(C)C)c1ccccc1 (stereo not shown) [1-6],
555 nM,,CC(C)C1CCC(C)(C)CC1C(=O)NC[C@@H](C)c1ccccc1 (stereo partly shown) [1-7],
610 nM,,CC(C)C1CCC(C)(C)CC1C(=O)NC[C@H](C)c1ccccc1 (stereo partly shown) [1-8],
29.8 nM,,CC(C)C1CCC(C)(C)CC1C(=O)NCCc1ccc(O)cc1 (stereo not shown) [1-9],
158 nM,,COc1ccc(CCNC(=O)C2CC(C)(C)CCC2C(C)C)cc1 (stereo not shown) [1-10],
113 nM,,CC(C)C1CCC(C)(C)CC1C(=O)NCCc1ccc(O)c(O)c1 (stereo not shown) [1-11],
403 nM,,COc1ccc(CCNC(=O)C2CC(C)(C)CCC2C(C)C)cc1OC (stereo not shown) [1-12],
50.2 nM,,CC(C)C1CCC(C)(C)CC1C(=O)NCCc1ccccc1 (stereo not shown) [1-13],

# Reference: patent US11236042B2, “Methylmenthol derivative and cool-sensation imparter composition containing same” (TAKASAGO INTERNATIONAL CORPORATION, priority 2017, dated 2022)
